# Test results published in patent US8455475B2 (Gruenenthal GmbH, priority 2009, dated 2013).
# Molecular target: T1, rat B1R (bradykinin receptor 1) (Rattus norvegicus, UniProt P97583)
# T1 construct: expressed in transfected cells; host or cells: CHO K1 cells
# T1 sequence (P97583 1-337): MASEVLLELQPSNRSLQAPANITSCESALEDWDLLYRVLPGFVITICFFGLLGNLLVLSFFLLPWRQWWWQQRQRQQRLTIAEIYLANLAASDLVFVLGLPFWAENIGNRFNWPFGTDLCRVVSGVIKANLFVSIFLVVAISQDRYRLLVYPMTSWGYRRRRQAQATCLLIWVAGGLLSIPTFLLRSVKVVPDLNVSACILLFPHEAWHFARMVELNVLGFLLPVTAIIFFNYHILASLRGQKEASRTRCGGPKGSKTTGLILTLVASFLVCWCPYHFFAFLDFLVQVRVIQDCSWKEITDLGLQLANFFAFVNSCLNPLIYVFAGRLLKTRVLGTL
# Experiment: FLIPR Ca2+ assay (Fluo-4) on CHO K1 cells stably transfected with the B1R gene of the rat (rB1R cells): % inhibition at 10 μM / IC50, agonist Des-Arg9-bradykinin
# Format: cell-based
# Conditions: CHO-K1, rat B1R
# In short: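 Stable CHO K1 lines, Fluo-4 dye, probenecid-containing buffer. Cpd 10 μM or dose range, 10–20 min, then EC80 agonist (h: Lys-Des-Arg9-BK; r: Des-Arg9-BK). Readout peak FC; % inhibition vs max; IC50 from n=2–3, N≥2.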
row,Molecule,inhibition at 10 µM [%]
1,"COc1cccc(F)c1CN1CCC2(CC1)CCN(C(=O)c1ccc3c(c1)C(NC(=O)c1c(F)cccc1Cl)CC3)CC2 (stereo not shown) [IND_CC-793, 2-Chloro-6-fluoro-N-[6-[9-[(2-fluoro-6-methoxy-phenyl)-methyl]-3,9-diazaspiro[5.5]undecane-3-carbonyl]-2,3-dihydro-1H-inden-1-yl]-benzamide]",79
2,"COc1ccc(CN2CCC3(CC2)CCN(C(=O)c2ccc4c(c2)C(N2Cc5c(c6c(Cl)cccc6n5C)C2=O)CC4)C3)cc1F (stereo not shown) [IND_CC-794, 8-Chloro-2-[6-[8-[(3-fluoro-4-methoxy-phenyl)-methyl]-2,8-diazaspiro[4.5]-decane-2-carbonyl]-2,3-dihydro-1H-inden-1-yl]-4-methyl-3,4-dihydro-2H-pyrrolo[3,4-b]indol-1-one]",59
3,"COc1cccc(F)c1CN1CCC2(CC1)CCN(C(=O)c1ccc3c(c1)C(N1Cc4c(c5c(Cl)cccc5n4C)C1=O)CC3)C2 (stereo not shown) [IND_CC-795, 8-Chloro-2-[6-[8-[(2-fluoro-6-methoxy-phenyl)-methyl]-2,8-diazaspiro[4.5]-decane-2-carbonyl]-2,3-dihydro-1H-inden-1-yl]-4-methyl-3,4-dihydro-2H-pyrrolo[3,4-b]indol-1-one]",54
4,"Cn1cncc1CN1CCC2(CC1)CCN(C(=O)c1ccc3c(c1)C(NC(=O)c1c(F)cccc1Cl)CC3)CC2 (stereo not shown) [IND_CC-796, 2-Chloro-6-fluoro-N-[6-[9-[(3-methyl-3H-imidazol-4-yl)-methyl]-3,9-diazaspiro[5.5]undecane-3-carbonyl]-2,3-dihydro-1H-inden-1-yl]-benzamide]",66
5,"O=C(NC1CCc2ccc(C(=O)N3CCC4(CCN(Cc5csnn5)CC4)CC3)cc21)c1c(F)cccc1Cl (stereo not shown) [IND_CC-797, 2-Chloro-6-fluoro-N-[6-[9-([1,2,3]thiadiazol-4-yl-methyl)-3,9-diazaspiro[5.5]undecane-3-carbonyl]-2,3-dihydro-1H-inden-1-yl]-benzamide]",91
6,"Cc1c(CN2CCC3(CC2)CCN(C(=O)c2ccc4c(c2)C(NC(=O)c2c(F)cccc2Cl)CC4)CC3)cnn1C (stereo not shown) [IND_CC-798, 2-Chloro-N-[6-[9-[(1,5-dimethyl-1H-pyrazol-4-yl)-methyl]-3,9-diazaspiro-[5.5]undecane-3-carbonyl]-2,3-dihydro-1H-inden-1-yl]-6-fluoro-benzamide]",71
7,"Cc1noc(C)c1CN1CCC2(CC1)CCN(C(=O)c1ccc3c(c1)C(NC(=O)c1c(F)cccc1Cl)CC3)CC2 (stereo not shown) [IND_CC-799, 2-Chloro-N-[6-[9-[(3,5-dimethyl-isoxazol-4-yl)-methyl]-3,9-diazaspiro-[5.5]undecane-3-carbonyl]-2,3-dihydro-1H-inden-1-yl]-6-fluoro-benzamide]",52
8,"N#Cc1cccc(CN2CCC3(CC2)CCN(C(=O)c2ccc4c(c2)C(NC(=O)c2c(F)cccc2Cl)CC4)CC3)c1 (stereo not shown) [IND_CC-800, 2-Chloro-N-[6-[9-[(3-cyano-phenyl)-methyl]-3,9-diazaspiro[5.5]undecane-3-carbonyl]-2,3-dihydro-1H-inden-1-yl]-6-fluoro-benzamide]",97
9,"N#Cc1ccccc1CN1CCC2(CC1)CCN(C(=O)c1ccc3c(c1)C(NC(=O)c1c(F)cccc1Cl)CC3)CC2 (stereo not shown) [IND_CC-801, 2-Chloro-N-[6-[9-[(2-cyano-phenyl)-methyl]-3,9-diazaspiro[5.5]undecane-3-carbonyl]-2,3-dihydro-1H-inden-1-yl]-6-fluoro-benzamide]",92
10,"O=C(NC1CCc2ccc(C(=O)N3CCC4(CCN(Cc5ccc(F)cc5Cl)CC4)CC3)cc21)c1c(F)cccc1Cl (stereo not shown) [IND_CC-802, 2-Chloro-N-[6-[9-[(2-chloro-4-fluoro-phenyl)-methyl]-3,9-diazaspiro-[5.5]undecane-3-carbonyl]-2,3-dihydro-1H-inden-1-yl]-6-fluoro-benzamide]",89
11,"O=C(NC1CCc2ccc(C(=O)N3CCC4(CCN(Cc5c(F)cccc5Cl)CC4)CC3)cc21)c1c(F)cccc1Cl (stereo not shown) [IND_CC-803, 2-Chloro-N-[6-[9-[(2-chloro-6-fluoro-phenyl)-methyl]-3,9-diazaspiro-[5.5]undecane-3-carbonyl]-2,3-dihydro-1H-inden-1-yl]-6-fluoro-benzamide]",76

# Next, values leading:
row,inhibition at 10 µM [%],Molecule
1,61,"O=C(NC1CCc2ccc(CC(=O)N3CCC4(CCN(Cc5ccc6ncccc6c5)CC4)C3)cc21)c1ccccc1Cl (stereo not shown) [IND_CC-804, 2-Chloro-N-[6-[2-oxo-2-[8-(quinolin-6-yl-methyl)-3,8-diazaspiro[4.5]decan-3-yl]-ethyl]-2,3-dihydro-1H-inden-1-yl]-benzamide]"
2,51,"O=C(NC1CCc2ccc(CC(=O)N3CCC4(CCN(Cc5ccc6nccnc6c5)CC4)C3)cc21)c1ccccc1Cl (stereo not shown) [IND_CC-805, 2-Chloro-N-[6-[2-oxo-2-[8-(quinoxalin-6-yl-methyl)-3,8-diazaspiro[4.5]decan-3-yl]-ethyl]-2,3-dihydro-1H-inden-1-yl]-benzamide]"
3,75,"CCC(CC)CN1CCC2(CC1)CCN(C(=O)Cc1ccc3c(c1)C(NC(=O)c1ccccc1Cl)CC3)C2 (stereo not shown) [IND_CC-806, 2-Chloro-N-[6-[2-[8-(2-ethyl-butyl)-3,8-diazaspiro[4.5]decan-3-yl]-2-oxo-ethyl]-2,3-dihydro-1H-inden-1-yl]-benzamide]"
4,53,"O=C(NC1CCc2ccc(CC(=O)N3CCC4(CCN(CC5CCCCC5)CC4)C3)cc21)c1ccccc1Cl (stereo not shown) [IND_CC-807, 2-Chloro-N-[6-[2-[8-(cyclohexyl-methyl)-3,8-diazaspiro[4.5]decan-3-yl]-2-oxo-ethyl]-2,3-dihydro-1H-inden-1-yl]-benzamide]"
5,100,"COc1cc(C)c(S(=O)(=O)NC2CCc3ccc(C(=O)N4CCC5(CCN(c6ccncc6)CC5)C4)cc32)c(C)c1 (stereo not shown) [Ind_CC-087, 4-methoxy-2,6-dimethyl-N-[6-(8-pyridin-4-yl-2,8-diazaspiro[4.5]decane-2-carbonyl)-2,3-dihydro-1H-inden-1-yl]-benzenesulfonic acid amide]"
6,93,"COc1cc(C)c(C(=O)NC2CCc3ccc(C(=O)N4CCC5(CCN(c6ccncc6)CC5)C4)cc32)c(C)c1 (stereo not shown) [Ind_CC-088, 4-methoxy-2,6-dimethyl-N-[6-(8-pyridin-4-yl-2,8-diazaspiro[4.5]decane-2-carbonyl)-2,3-dihydro-1H-inden-1-yl]-benzamide]"
7,100,"O=C(c1ccc2c(c1)C(NS(=O)(=O)c1ccccc1Cl)CC2)N1CCC2(CCN(c3ccncc3)CC2)C1 (stereo not shown) [Ind_CC-089, 2-chloro-N-[6-(8-pyridin-4-yl-3,8-diazaspiro[4.5]decane-3-carbonyl)-2,3-dihydro-1H-inden-1-yl]-benzenesulfonic acid amide]"

# Same assay, conditions: rat B1R
row,Molecule,% Inhibition (rat B1R) at 10 μM [%]
1,"N,3-Dimethyl-N-[6-(9-pyridin-4-yl-3,9-diazaspiro[5.5]undecane-3-carbonyl)-2,3-dihydro-1H-inden-1-yl]-butyramide [IND_CC-408]",101
